Laboratory results reported in US20260262643A1, “HERBICIDAL BENZOXAZINES” (FMC CORPORATION, priority 2022, published 2026).

Experiments:
pigweed, palmer [1] = test: Test C preemergence; assay type: in vivo, Amaranthus palmeri
Procedure, shortened: (§1)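 Soil-applied (pre) and foliar (post, 1–2 leaf, 2–10 cm) sprays; surfactant-containing non-phytotoxic solvent vehicle; loam/sand substrate. Readout: visual % control at 10 d, greenhouse, versus untreated.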

foxtail, giant [2] = test: Test C preemergence; assay type: in vivo, Setaria faberi
Text: (§2) Seeds of plant species selected from barnyardgrass (Echinochloa crusgalli), blackgrass (Alopecurus myosuroides), corn (Zea mays), foxtail, giant (giant foxtail, Setaria faberi), green foxtail (Setaria viridis), goosegrass (Eleusine indica), kochia (Bassia scoparia), oat, wild (wild oat, Avena fatua), pigweed, palmer (palmer amaranth, palmer pigweed, Amaranthus palmeri), Pigweed, Redroot (redroot pigweed, Amaranthus retroflexus), ragweed (common ragweed, Ambrosia artemisiifolia), ryegrass, Italian ([…] ryegrass, Lolium multiflorum), soybean (Glycine max), and wheat (Triticum aestivum) were planted into a blend of loam soil and sand and treated preemergence with a directed soil spray using test chemicals formulated in a non-phytotoxic solvent mixture which included a surfactant. At the same time, plants selected from these crops and weed species and also galium (catchweed bedstraw, Galium aparine) and horseweed (Erigeron canadensis) were planted in pots containing the same blend of loam soil and sand and treated with postemergence applications of test chemicals formulated in the same manner. Plants ranged in height from 2 to 10 cm and were in the one- to two-leaf stage for the postemergence treatment. Treated plants and untreated controls were maintained in a greenhouse for 10 days, after which time all treated plants were compared to untreated controls and visually evaluated for injury. Plant response ratings, summarized in Table C, are based on a 0 to 100 scale where 0 is no effect and 100 is complete control. A dash (-) response means no test result.

wheat [3] = test: Test C preemergence; assay type: in vivo, Triticum aestivum
Procedure, shortened: as §1

barnyardgrass [4] = test: Test C postemergence; assay type: in vivo, Echinochloa crusgalli; details: 10 days, 0 to 100 scale (0 no effect, 100 complete control)
Procedure, shortened: as §1

blackgrass [5] = test: Test C preemergence; assay type: in vivo, Alopecurus myosuroides
Procedure, shortened: as §1

ryegrass, Italian [6] = test: Test C postemergence; assay type: in vivo, Lolium multiflorum; details: 10 days, 0 to 100 scale (0 no effect, 100 complete control)
Procedure, shortened: as §1

foxtail, giant [7] = test: Test C postemergence; assay type: in vivo, Setaria faberi; details: 10 days, 0 to 100 scale (0 no effect, 100 complete control)
Text: as §2

soybean [8] = test: Test C postemergence; assay type: in vivo, Glycine max; details: 10 days, 0 to 100 scale (0 no effect, 100 complete control)
Procedure, shortened: as §1

wheat [9] = test: Test C postemergence; assay type: in vivo, Triticum aestivum; details: 10 days, 0 to 100 scale (0 no effect, 100 complete control)
Procedure, shortened: as §1

barnyardgrass [10] = test: Test C preemergence; assay type: in vivo, Echinochloa crusgalli
Procedure, shortened: as §1

ragweed [11] = test: Test C preemergence; assay type: in vivo, Ambrosia artemisiifolia
Procedure, shortened: as §1

oat, wild [12] = test: Test C postemergence; assay type: in vivo, Avena fatua; details: 10 days, 0 to 100 scale (0 no effect, 100 complete control)
Procedure, shortened: as §1

ryegrass, Italian [13] = test: Test C preemergence; assay type: in vivo, Lolium multiflorum
Procedure, shortened: as §1

sedge, umbrella = test: Test D flooded paddy test; assay type: in vivo, Cyperus difformis; details: 250 g ai/ha, applied to paddy water, visual rating after 13 to 14 days, scale 0 to 100 (0 no effect, 100 complete control)
Procedure, shortened: (§3)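 Plants grown to the 2-leaf stage; pots flooded to 3 cm above soil at treatment and held at that depth throughout. Test compounds applied directly to the paddy water. After 13 to 14 days in a greenhouse, response was rated visually versus controls on a 0 (no effect) to 100 (complete control) scale.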

horseweed = test: Test C postemergence; assay type: in vivo, Erigeron canadensis; details: 10 days, 0 to 100 scale (0 no effect, 100 complete control)
Procedure, shortened: as §1

galium = test: Test C postemergence; assay type: in vivo, Galium aparine; details: 10 days, 0 to 100 scale (0 no effect, 100 complete control)
Procedure, shortened: as §1

rice = test: Test D flooded paddy test; assay type: in vivo, Oryza sativa; details: 250 g ai/ha, applied to paddy water, visual rating after 13 to 14 days, scale 0 to 100 (0 no effect, 100 complete control)
Procedure, shortened: as §3

ducksalad = test: Test D flooded paddy test; assay type: in vivo, Heteranthera limosa; details: 250 g ai/ha, applied to paddy water, visual rating after 13 to 14 days, scale 0 to 100 (0 no effect, 100 complete control)
Procedure, shortened: as §3

kochia [14] = test: Test C postemergence; assay type: in vivo, Bassia scoparia; details: 10 days, 0 to 100 scale (0 no effect, 100 complete control)
Procedure, shortened: as §1

kochia [15] = test: Test C preemergence; assay type: in vivo, Bassia scoparia
Procedure, shortened: as §1

oat, wild [16] = test: Test C preemergence; assay type: in vivo, Avena fatua
Procedure, shortened: as §1

soybean [17] = test: Test C preemergence; assay type: in vivo, Glycine max
Procedure, shortened: as §1

corn [18] = test: Test C postemergence; assay type: in vivo, Zea mays; details: 10 days, 0 to 100 scale (0 no effect, 100 complete control)
Procedure, shortened: as §1

ragweed [19] = test: Test C postemergence; assay type: in vivo, Ambrosia artemisiifolia; details: 10 days, 0 to 100 scale (0 no effect, 100 complete control)
Procedure, shortened: as §1

barnyardgrass [20] = test: Test D flooded paddy test; assay type: in vivo, Echinochloa crus-galli; details: 250 g ai/ha, applied to paddy water, visual rating after 13 to 14 days, scale 0 to 100 (0 no effect, 100 complete control)
Procedure, shortened: as §3

blackgrass [21] = test: Test C postemergence; assay type: in vivo, Alopecurus myosuroides; details: 10 days, 0 to 100 scale (0 no effect, 100 complete control)
Procedure, shortened: as §1

pigweed, palmer [22] = test: Test C postemergence; assay type: in vivo, Amaranthus palmeri; details: 10 days, 0 to 100 scale (0 no effect, 100 complete control)
Procedure, shortened: as §1

corn [23] = test: Test C preemergence; assay type: in vivo, Zea mays
Procedure, shortened: as §1

[24] = 500 g ai/ha, preemergence, 0 to 100 scale (0 no effect, 100 complete control)
[25] = Preemergence, 125 g ai/ha, 0 to 100 scale, 0 no effect, 100 complete control

Structure (SMILES): C[C@H]1CN(C(=O)c2cc(-n3cncn3)cc(C(F)(F)F)c2)c2cccc(Cl)c2O1 [Compound 335]
- Pigweed, Palmer plant response rating (pigweed, palmer [1]; [24]): 60
- Plant response rating, Pigweed, Palmer (pigweed, palmer [1]; [25]): 0
- Foxtail, Giant plant response rating (foxtail, giant [2]; [24]): 90
- Plant response rating, Foxtail, Giant (foxtail, giant [2]; [25]): 30
- Wheat plant response rating (wheat [3]; [24]): 0
- Plant response rating, Wheat (wheat [3]; [25]): 0
- Plant response rating, Barnyardgrass (barnyardgrass [4]; 500 g ai/ha, postemergence): 20
- Plant response rating, Barnyardgrass (barnyardgrass [4]; Postemergence, 125 g ai/ha): 10
- Blackgrass plant response rating (blackgrass [5]; [24]): 80
- Plant response rating, Blackgrass (blackgrass [5]; [25]): 20
- Plant response rating, Ryegrass, Italian (ryegrass, Italian [6]; 500 g ai/ha, postemergence): 30
- Plant response rating, Ryegrass, Italian (ryegrass, Italian [6]; Postemergence, 125 g ai/ha): 10
- Plant response rating, Foxtail, Giant (foxtail, giant [7]; 500 g ai/ha, postemergence): 50
- Plant response rating, Foxtail, Giant (foxtail, giant [7]; Postemergence, 125 g ai/ha): 20
- Plant response rating, Soybean (soybean [8]; 500 g ai/ha, postemergence): 100
- Plant response rating, Soybean (soybean [8]; Postemergence, 125 g ai/ha): 90
- Plant response rating, Wheat (wheat [9]; 500 g ai/ha, postemergence): 20
- Plant response rating, Wheat (wheat [9]; Postemergence, 125 g ai/ha): 10
- Barnyardgrass plant response rating (barnyardgrass [10]; [24]): 60
- Plant response rating, Barnyardgrass (barnyardgrass [10]; [25]): 20
- Ragweed plant response rating (ragweed [11]; [24]): 0
- Plant response rating, Ragweed (ragweed [11]; [25]): 0
- Plant response rating, Oat, Wild (oat, wild [12]; 500 g ai/ha, postemergence): 0
- Plant response rating, Oat, Wild (oat, wild [12]; Postemergence, 125 g ai/ha): 0
- Ryegrass, Italian plant response rating (ryegrass, Italian [13]; [24]): 80
- Plant response rating, Ryegrass, Italian (ryegrass, Italian [13]; [25]): 30
- Plant response rating, Sedge, Umbrella (Flood) (sedge, umbrella): 35
- Plant response rating, Horseweed (horseweed; 500 g ai/ha, postemergence): 0
- Plant response rating, Horseweed (horseweed; Postemergence, 125 g ai/ha): 0
- Plant response rating, Galium (galium; 500 g ai/ha, postemergence): 50
- Plant response rating, Galium (galium; Postemergence, 125 g ai/ha): 50
- Plant response rating, Rice (Flood) (rice): 0
- Plant response rating, Ducksalad (Flood) (ducksalad): 35
- Plant response rating, Kochia (kochia [14]; 500 g ai/ha, postemergence): 30
- Plant response rating, Kochia (kochia [14]; Postemergence, 125 g ai/ha): 10
- Kochia plant response rating (kochia [15]; [24]): 20
- Plant response rating, Kochia (kochia [15]; [25]): 0
- Oat, Wild plant response rating (oat, wild [16]; [24]): 10
- Plant response rating, Oat, Wild (oat, wild [16]; [25]): 0
- Soybean plant response rating (soybean [17]; [24]): 30
- Plant response rating, Soybean (soybean [17]; [25]): 0
- Plant response rating, Corn (corn [18]; 500 g ai/ha, postemergence): 10
- Plant response rating, Corn (corn [18]; Postemergence, 125 g ai/ha): 10
- Plant response rating, Ragweed (ragweed [19]; 500 g ai/ha, postemergence): 20
- Plant response rating, Ragweed (ragweed [19]; Postemergence, 125 g ai/ha): 0
- Plant response rating, Barnyardgrass (Flood) (barnyardgrass [20]): 0
- Plant response rating, Blackgrass (blackgrass [21]; 500 g ai/ha, postemergence): 20
- Plant response rating, Blackgrass (blackgrass [21]; Postemergence, 125 g ai/ha): 0
- Plant response rating, Pigweed, Palmer (pigweed, palmer [22]; 500 g ai/ha, postemergence): 60
- Plant response rating, Pigweed, Palmer (pigweed, palmer [22]; Postemergence, 125 g ai/ha): 10
- Corn plant response rating (corn [23]; [24]): 10
- Plant response rating, Corn (corn [23]; [25]): 0
